Measurements taken from patent US6908930B2, “4-substituted 7-AZA-indolin-2-ones and their use as protein kinase inhibitors” (Sugen, Inc., priority 1999, dated 2005).
Where a name gives a salt, the structure may show the parent alone.

What was measured:
EGFR = target: T1, EGFR (Homo sapiens, UniProt P00533); assay: Assay for modulation of EGFR activity (ELISA); type: biochemical; conditions: for IC50: read-out: bio EGFR IC50
T1 construct: A431 […] cell lysate is stored at −80° C; host or cells: A431 cell lysate
T1 sequence (P00533 25-1210): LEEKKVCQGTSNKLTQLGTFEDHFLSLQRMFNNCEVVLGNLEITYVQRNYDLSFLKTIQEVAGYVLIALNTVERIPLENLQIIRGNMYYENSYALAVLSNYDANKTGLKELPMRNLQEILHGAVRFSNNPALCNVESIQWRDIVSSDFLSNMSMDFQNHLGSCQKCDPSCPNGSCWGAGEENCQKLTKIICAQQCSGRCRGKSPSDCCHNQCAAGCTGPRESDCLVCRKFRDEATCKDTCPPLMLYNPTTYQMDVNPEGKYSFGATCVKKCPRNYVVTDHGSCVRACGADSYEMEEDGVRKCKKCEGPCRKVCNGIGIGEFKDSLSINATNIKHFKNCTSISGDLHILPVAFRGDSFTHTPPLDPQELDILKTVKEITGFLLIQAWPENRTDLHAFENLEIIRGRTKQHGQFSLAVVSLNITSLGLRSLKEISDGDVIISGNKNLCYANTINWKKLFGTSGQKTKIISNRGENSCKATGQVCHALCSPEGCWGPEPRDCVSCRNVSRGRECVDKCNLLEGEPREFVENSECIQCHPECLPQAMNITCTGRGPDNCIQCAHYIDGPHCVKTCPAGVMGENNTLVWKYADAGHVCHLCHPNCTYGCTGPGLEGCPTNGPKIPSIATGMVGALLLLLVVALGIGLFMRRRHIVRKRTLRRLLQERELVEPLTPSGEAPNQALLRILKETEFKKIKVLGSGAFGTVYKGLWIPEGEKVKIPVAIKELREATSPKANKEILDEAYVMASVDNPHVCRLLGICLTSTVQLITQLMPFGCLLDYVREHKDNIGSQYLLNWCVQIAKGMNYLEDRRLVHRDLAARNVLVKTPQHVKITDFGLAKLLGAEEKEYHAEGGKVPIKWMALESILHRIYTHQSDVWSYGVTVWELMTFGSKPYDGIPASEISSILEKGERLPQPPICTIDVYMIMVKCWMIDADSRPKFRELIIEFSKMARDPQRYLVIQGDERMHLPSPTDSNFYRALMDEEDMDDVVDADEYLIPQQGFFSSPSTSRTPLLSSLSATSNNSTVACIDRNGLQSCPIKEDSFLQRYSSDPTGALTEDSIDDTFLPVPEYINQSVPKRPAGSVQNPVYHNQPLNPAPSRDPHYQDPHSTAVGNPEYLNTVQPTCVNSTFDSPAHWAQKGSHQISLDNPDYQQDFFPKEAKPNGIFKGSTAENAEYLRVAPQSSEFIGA
Procedure: Using the following reagents, supplies, and method, the ability of compounds of the invention to modulate the in vitro activity of EGFR can be readily determined in an ELISA.
A431 […] cell lysate is stored at −80° C.
ATP/MnCl2 phosphorylation mix is prepared by adding 300 μL of 1.0 mM ATP and […] of 1M MnCl2 to 9.2 mL of dH2O and mixing. Ten mL of phosphorylation mix is enough for about 6 assay plates. Note that the mixture should be made fresh and kept on ice immediately before use, and that although the preferred ATP is fresh from powder stock, any remaining stock solution of ATP may be frozen at −20° C. in small aliquots to be used at a later time.
Coat Corning 96 well ELISA plates with 0.5 μg per well with SUMO1 in a volume of 100 μL PBS overnight, at 4° C. Remove unbound SUMO1 from wells by inverting plate to remove liquid. Wash 1× with distilled H2O by filling wells. Pat the plate on a paper towel to remove excess liquid.
Add 150 μL of Blocking Buffer to each well. Incubate for 30 minutes at room temperature, with shaking. Wash plate 3× with deionized water, then once with TBST. Pat plate on a paper towel to remove excess liquid and bubbles.
Dilute lysate in PBS (7 μg lysate/[…]) and add 100 μL of diluted lysate to each well. Shake at room temperature for 60 minutes. Wash 1× with distilled H2O by filling wells. Pat the plate on a paper towel to remove excess liquid.
Add 120 μL TBST to ELISA plate containing captured EGFR.
Dilute drugs/extracts 1:10 (unless specified otherwise) in TBST in 96-well polypropylene plates. (i.e., 10 μL compound+90 μL TBST). Add 13.5 μL diluted drugs/extracts to ELISA plate. […] Incubate for 30 minutes while shaking at room temperature.
Approximately 150 μL final volume in well with 3 uM ATP/5 mM MnCl2 final concentration in well. Incubate 5 minutes while shaking. Note that this is a timed event. It is critical that ATP/MnCl2 phosphorylates the receptor for only 5 minutes. It is best to add the ATP/MnCl2 with an automated 96 place pipettor workstation, then 5 minutes later stop the reaction with EDTA using the same workstation. Alternatively, addition can be performed using a 12 channel pipettor 1 row at a time, leaving 20 seconds between each row so that the reaction may be stopped with EDTA exactly 5 minutes later (this depends on the number of plates being phosphorylated in one batch). Shake between each addition.
[…] This is done using either the same work station as above, or the same timing method employed with the 12 channel pipettor. After the EDTA has been added, shake for 1 minute. Wash 4× with deionized water, twice with TBST.
Add 100 μL per well of anti-phosphotyrosine (1:3000 dilution in TBST). Incubate 30-45 minutes at room temperature, with shaking. Wash 1× with distilled H2O by filling wells. Pat the plate on a paper towel to remove excess liquid.
Incubate 30 minutes at room temperature, with shaking. Wash 1× with distilled H2O by filling wells. Pat the plate on a paper towel to remove excess liquid.
Add 100 μL of ABTS/H2O2 solution to each well. Incubate 5 to 10 minutes while shaking. Remove any bubbles. If necessary stop reaction with the addition of 100 μL of 0.2M HCl per well.
Read assay on Dynatech MR7000 ELISA reader.

human cdk2/cyclin A = target: T2, human cdk2/cyclin A (Homo sapiens, UniProt P24941); assay: Assay for inhibition of CDK2 (Scintillation Proximity Assay); type: biochemical; conditions: read-out: cdk2SPA IC50
T2 construct: made in house; host or cells: Sf9 (baculovirus)
Procedure: Using the following reagents, supplies, and method, the ability of compounds of the invention to assay for modulation of the in vitro kinase activity of human cdk2/cyclin A in a Scintillation Proximity Assay (SPA).
Activated cdk2/cyclin A enzyme complex is purified from Sf9 cells and stored at −80° C. in 200 μL aliquots. Human cdk2/cyclin A protein is expressed, activated, and purified from baculovirus infected sf9 cells as described previously. (J. Mol. Biol., 230:1317-1319 (1993)).
The substrate is a biotinylated peptide substrate (Debtide), which is a peptide biotin-X-[…] dissolved in dH2O at a concentration of 5 mg/mL and stored at −80° C. in 100 μL aliquots.
The Peptide/ATP mixture is prepared by mixing 9.979 mL dH2O with 0.00125 mL of cold 10 mM ATP, 0.010 mL of 5 mg/mL Debtide, and 0.010 mL of 10 μCi/mL γ^33P ATP.
A 2.5× kinase buffer is prepared by mixing 8.85 mL of dH2O with 0.625 mL of 1M Tris pH 7.4, 0.25 mL of 1M MgCl2, 0.25 mL of 10% NP40, and 0.025 mL of 1M DTT. Ten milliliters of kinase buffer mix is sufficient for about 4.5 assay plates.
Prepare solutions of inhibitors at 5× the desired final concentration in 5% DMSO. Add 10 μL to each well. For negative controls, add 10 μL 5% DMSO.
Dilute 5 μL of cdk2/cyclin A solution into 2.1 mL 2× kinase buffer (per plate) and add 20 μL enzyme per well. This can be added using a hand pipette or by using the Titertek Multidrop. […] For each freeze/thaw cycle, double the amount of enzyme used in the assay. Also, the enzyme should be thawed quickly (e.g., in the palm of one's hand) and be kept on ice prior to use in the assay. Add 10 μL of 0.5 M EDTA to the negative control wells.
To start kinase reaction, add 20 μL of peptide/ATP mixture using either a hand pipette or the Titertek Multidrop. Let sit on benchtop behind shield for one hour. No shaking is necessary and is not recommended when using Flexiplates (plates are not easy to add/remove from shaker).
Add 200 μL stop solution per well using either the Titertek Multidrop or hand pipette. Let stand at least 10 minutes. Spin plate approximately 2300 rpm for 3-5 minutes. Count plate on Trilux reader.

SMILES | IC50 (EGFR) [nM] | IC50 (human cdk2/cyclin A) [nM] | inhibition of EGFR (in words) (EGFR; hydrochloride salt)
Cc1nc[nH]c1C=C1C(=O)Nc2ncnc(N3CCOCC3)c21 [Formula 14] | > 20000 | 40 | 
C#Cc1cccc(Nc2ncnc3c2C(=Cc2ccc(C(=O)NCCN4CCOCC4)[nH]2)C(=O)N3)c1 [Formula 16, 5-[4-(3-ETHYNYL-PHENYLAMINO)-6-OXO-6,7-DIHYDRO-PYRROLO[2,3-D]PYRIMIDIN-5-YLIDENEMETHYL]-1H-PYRROLE-2-CARBOXYLIC ACID (2-MORPHOLIN-4-YL-ETHYL)-AMIDE HYDROCHLORIDE] | 100 |  | 
C#Cc1cccc(Nc2ncnc3c2C(=Cc2[nH]c(C(=O)NCCN4CCOCC4)cc2C)C(=O)N3)c1 [Formula 17, 5-[4-(3-ETHYNYL-PHENYLAMINO)-6-OXO-6,7-DIHYDRO-PYRROLO[2,3-D]PYRIMIDIN-5-YLIDENEMETHYL]-4-METHYL-1H-PYRROLE-2-CARBOXYLIC ACID (2-MORPHOLIN-4-YL-ETHYL)-AMIDE] | 20 |  | 
Cc1cc(C(=O)NCCN2CCOCC2)[nH]c1C=C1C(=O)Nc2nccc(Nc3ccc(F)c(Cl)c3)c21 [Formula 3, 5-[4-(3-CHLORO-4-FLUORO-PHENYLAMINO)-2-OXO-1,2-DIHYDRO-PYRROLO[2,3-B]PYRIDIN-3-YLIDENEMETHYL]-4-METHYL-1H-PYRROLE-2-CARBOXYLIC ACID (2-MORPHOLIN-4-YL-ETHYL)-AMIDE] | 510 | > 10000 | 
Cc1cc(C(=O)NCCN2CCOCC2)[nH]c1C=C1C(=O)Nc2ncnc(Nc3ccc(F)c(Cl)c3)c21 [Formula 4, 5-[4-(3-CHLORO-4-FLUORO-PHENYLAMINO)-6-OXO-6,7-DIHYDRO-PYRROLO[2,3-D]PYRIMIDIN-5-YLIDENEMETHYL]-4-METHYL-1H-PYRROLE-2-CARBOXYLIC ACID (2-MORPHOLIN-4-YL-ETHYL)-AMIDE HYDROCHLORIDE] |  | > 10000 | 
O=C1Nc2ncnc(Nc3ccc4c(ccn4Cc4ccccc4)c3)c2C1=Cc1ccc(C(=O)NCCN2CCOCC2)[nH]1 [Formula 12, 5-[4-(1-BENZYL-1H-INDOL-5-YLAMINO)-6-OXO-6,7-DIHYDRO-PYRROLO[2,3-D]PYRIMIDIN-5-YLIDENEMETHYL]-1H-PYRROLE-2-CARBOXYLIC ACID (2-MORPHOLIN-4-YL-ETHYL)-AMIDE HYDROCHLORIDE] | 4 |  | 
Cc1cc(C(=O)NCCN2CCOCC2)[nH]c1C=C1C(=O)Nc2ncnc(Nc3ccc4c(ccn4Cc4ccccc4)c3)c21.Cl [Formula 6, 5-[4-(1-BENZYL-1H-INDOL-5-YLAMINO)-6-OXO-6,7-DIHYDRO-PYRROLO[2,3-D]PYRIMIDIN-5-YLIDENEMETHYL]-4-METHYL-1H-PYRROLE-2-CARBOXYLIC ACID (2-MORPHOLIN-4-YL-ETHYL)-AMIDE HYDROCHLORIDE] | 1 |  | inhibits EGFR at very low concentrations
Cc1nc[nH]c1C=C1C(=O)Nc2ncnc(N3CCN(C)CC3)c21 [Formula 11] | > 20000 | 10 | 
Cc1nc[nH]c1C=C1C(=O)Nc2ncnc(Nc3ccc(F)c(Cl)c3)c21 [Formula 8] | 60 | 2620 | 
Cc1cc(C(=O)NCCN2CCOCC2)[nH]c1C=C1C(=O)Nc2ncnc(N3CCN(C)CC3)c21 [Formula 10, 4-METHYL-5-[4-(4-METHYL-PIPERAZIN-1-YL)-6-OXO-6,7-DIHYDRO-PYRROLO[2,3-D]PYRIMIDIN-5-YLIDENEMETHYL]-1H-PYRROLE-2-CARBOXYLIC ACID (2-MORPHOLIN-4-YL-ETHYL)-AMIDE] | > 20000 |  | 
Cc1c(C(=O)N2CCOCC2)c[nH]c1/C=C1\C(=O)Nc2ncnc(Nc3ccc(F)c(Cl)c3)c21 [Formula 31] | 210 |  | 
O=C1Nc2ncnc(N3CCOCC3)c2C1=Cc1ccc(C(=O)NCCN2CCOCC2)[nH]1 [Formula 13, 5-(4-MORPHOLIN-4-YL-6-OXO-6,7-DIHYDRO-PYRROLO[2,3-D]PYRIMIDIN-5-YLIDENEMETHYL)-1H-PYRROLE-2-CARBOXYLIC ACID (2-MORPHOLIN-4-YL-ETHYL)-AMIDE] | 19100 |  | 
Cc1[nH]c(C=C2C(=O)Nc3ncnc(Nc4ccc(F)c(Cl)c4)c32)c(C)c1CCCN1CCOCC1 [Formula 7, 4-(3-CHLORO-4-FLUORO-PHENYLAMINO)-5-[3,5-DIMETHYL-4-(3-MORPHOLIN-4-YL-PROPYL)-1H-PYRROL-2-YLMETHYLENE]-5,7-DIHYDRO-PYRROLO[2,3-D]PYRIMIDIN-6-ONE HYDROCHLORIDE] | 160 |  | 
O=C1Nc2ncnc(N3CCCCC3)c2C1=Cc1ccc(C(=O)NCCN2CCOCC2)[nH]1 [Formula 5, 5-(6-OXO-4-PIPERIDIN-1-YL-6,7-DIHYDRO-PYRROLO[2,3-D]PYRIMIDIN-5-YLIDENEMETHYL)-1H-PYRROLE-2-CARBOXYLIC ACID (2-MORPHOLIN-4-YL-ETHYL)-AMIDE] | > 20000 |  | 
Cc1cc(C(=O)N2CCN(C)CC2)[nH]c1/C=C1\C(=O)N(C)c2ncnc(Nc3ccc(F)c(Cl)c3)c21 [Formula 36] | 17400 |  | 
O=C1Nc2ncnc(Nc3ccc(F)c(Cl)c3)c2C1=Cc1ccc(C(=O)NCCN2CCOCC2)[nH]1 [Formula 15, 5-[4-(3-CHLORO-4-FLUORO-PHENYLAMINO)-6-OXO-6,7-DIHYDRO-PYRROLO[2,3-D]PYRIMIDIN-5-YLIDENEMETHYL]-1H-PYRROLE-2-CARBOXYLIC ACID (2-MORPHOLIN-4-YL-ETHYL)-AMIDE] | 20 |  | 
Cc1cc(C(=O)N2CCOCC2)[nH]c1/C=C1\C(=O)N(C)c2ncnc(Nc3ccc(F)c(Cl)c3)c21 [Formula 34] | > 20000 |  | 
Cc1cc(C=C2C(=O)Nc3ncnc(Nc4ccc(F)c(Cl)c4)c32)[nH]c1C(=O)N1CCOCC1 [Formula 37] | 240 |  | 
CC(C)c1cc(CCC(=O)O)c(/C=C2\C(=O)Nc3ncnc(Nc4ccc(F)c(Cl)c4)c32)[nH]1 [Formula 27] | 150 |  | 
C#Cc1cccc(Nc2ncnc3c2C(=Cc2[nH]c(C)c(CCCN4CCOCC4)c2C)C(=O)N3)c1 [Formula 18] | 180 |  | 
Cc1cc(C)c(C=C2C(=O)Nc3ncnc(Nc4ccc(F)c(Cl)c4)c32)[nH]1 [Formula 9] | 40 |  | 
